Reference: patent US9023789B2, “Amylin analogs and pharmaceutical compositions thereof” (Novo Nordisk A/S, priority 2012, dated 2015)
Converted amounts (≈) assume the structure as drawn. Like-named read-outs stand apart in the source and are kept apart here. Numbered stars: 1 amine (or outer) side, 2 acyl side, 3 side chain; on linkers, the order of the positions; unused ones are H or OH. Bridge positions count the residues as written; N and C are the ends. Side chains are listed from the residue outwards. Peptide text beside a SMILES is read from it. * marks the point of attachment. C20 diacid = O=C(O)CCCCCCCCCCCCCCCCCCC(=O)*; γGlu = O=C(O)[C@H](CCC(=O)[*:2])N[*:1]; AEEA = NCCOCCOCC(=O)O

How the values were obtained:
[1] = target: T1, human calcitonin (a) receptor in BHK570 cells (Homo sapiens, UniProt P30988); assay: ASSAY (II)a functional assay, human calcitonin receptor (CRE luciferase); assay type: cell-based; conditions: read-out: hCTR funct. EC50
T1 construct: expressed in transfected cells
T1 sequence (P30988 25-474): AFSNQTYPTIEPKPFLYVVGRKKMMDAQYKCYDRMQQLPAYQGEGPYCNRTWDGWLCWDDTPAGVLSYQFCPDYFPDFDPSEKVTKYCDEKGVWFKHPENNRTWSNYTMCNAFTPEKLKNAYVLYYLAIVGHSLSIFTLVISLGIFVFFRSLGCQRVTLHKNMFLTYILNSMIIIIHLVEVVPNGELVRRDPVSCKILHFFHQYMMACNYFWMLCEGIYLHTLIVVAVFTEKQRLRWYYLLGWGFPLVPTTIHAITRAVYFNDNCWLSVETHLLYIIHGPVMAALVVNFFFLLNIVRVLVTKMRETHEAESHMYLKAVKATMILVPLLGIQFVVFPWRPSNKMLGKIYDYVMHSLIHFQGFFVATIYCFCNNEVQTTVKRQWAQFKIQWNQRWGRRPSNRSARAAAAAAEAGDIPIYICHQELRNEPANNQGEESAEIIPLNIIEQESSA
Procedure, shortened: (§1)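 Ligand exposure 3 h at 37 °C, 5% CO2 in DMEM with 10% FBS, 10 mM Hepes pH 7.4. cAMP-driven luciferase read by luminescence after 30 min LucLite at room temperature.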

[2] = ASSAY (IV) determination of solubility; assay type: physicochemical
Procedure, shortened: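 Polypeptide stock in water ([…]) was mixed 1:1 with 100 mM buffers: glycylglycine at pH 3.0, 4.0, 5.0 and bistrispropane at pH 6.0, 6.5, 7.0, 7.5, 8.0. After 18 hours at room temperature, samples were centrifuged and polypeptide concentration measured by UPLC.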

[3] = target: T2, human calcitonin receptor (Homo sapiens, UniProt P30988); assay: ASSAY (VII) binding to the human calcitonin receptor (SPA, 125I-Calcitonin); conditions: read-out: hCTR bind IC50;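 also: cell membranes (35 ng/µL) combined with SPA beads in 40 µL of pH 7.4 Hepes buffer, 384-well format, signal counted on a TopCounter instrument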
T2 construct: expressed in transfected cells
T2 sequence (P30988 25-474): T1 sequence (P30988 25-474)

[4] = target: T3, human amylin 3(a) receptor (human calcitonin receptor + RAMP-3) in BHK570 cells (Homo sapiens, UniProt O60896+P30988); assay: ASSAY (II)a functional assay, human amylin receptor (CRE luciferase); assay type: cell-based; conditions: for EC50: human amylin receptor functional potency, assay (II), read-out: hAmylin-R funct. EC50
T3 construct: expressed in transfected cells
Procedure, shortened: as §1

[5] = target: T4, rat amylin receptor (rat calcitonin receptor + rat RAMP 3) (Rattus norvegicus, UniProt P32214+Q9JJ73); assay: ASSAY (VI) binding to the rat amylin receptor; conditions: for IC50: binding to rat amylin receptor, read-out: rAmylin-R bind IC50
T4 construct: expressed in transfected cells; host or cells: BHK tk'ts 13 (transient, FuGENE 6), membranes
T4 sequence (P32214 25-479 isoform P32214-2 limits assumed): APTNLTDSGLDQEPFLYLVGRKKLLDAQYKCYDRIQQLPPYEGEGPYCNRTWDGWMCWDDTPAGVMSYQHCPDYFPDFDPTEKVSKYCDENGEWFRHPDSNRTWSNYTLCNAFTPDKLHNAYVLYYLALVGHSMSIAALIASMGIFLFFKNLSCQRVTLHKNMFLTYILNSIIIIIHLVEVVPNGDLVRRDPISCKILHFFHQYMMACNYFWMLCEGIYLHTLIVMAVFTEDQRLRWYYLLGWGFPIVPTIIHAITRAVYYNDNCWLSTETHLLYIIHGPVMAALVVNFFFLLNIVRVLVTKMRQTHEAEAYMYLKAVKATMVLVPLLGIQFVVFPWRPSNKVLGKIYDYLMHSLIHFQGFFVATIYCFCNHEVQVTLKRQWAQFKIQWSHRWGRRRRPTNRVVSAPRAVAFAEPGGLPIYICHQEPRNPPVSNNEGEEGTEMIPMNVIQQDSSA
T4 sequence (Q9JJ73 23-147 partner): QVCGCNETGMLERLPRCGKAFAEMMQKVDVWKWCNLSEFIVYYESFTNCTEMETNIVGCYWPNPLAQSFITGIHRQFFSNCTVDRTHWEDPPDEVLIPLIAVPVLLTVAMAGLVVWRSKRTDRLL
Procedure, shortened: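 This assay measured binding to the rat amylin receptor. BHK tk′ts 13 cells were transiently transfected with the rat calcitonin receptor using FuGENE® 6 (Roche), following the manufacturer's recommendations. About 48 hours after transfection, the cells were harvested and membranes were prepared from them for the binding determination.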

[6] = bistrispropane buffer, pH 6.5, read-out: Solubility pH 6.5 Concentration
[7] = bistrispropane buffer, pH 7.5, read-out: Solubility pH 7.5 Concentration
[8] = bistrispropane buffer, pH 6.0, read-out: Solubility pH 6.0 Concentration
[9] = bistrispropane buffer, pH 7.0, read-out: Solubility pH 7.0 Concentration
[10] = bistrispropane buffer, pH 8.0, read-out: Solubility pH 8.0 Concentration
[11] = glycylglycine buffer, pH 3.0, read-out: Solubility pH 3.0 Concentration
[12] = glycylglycine buffer, pH 4.0, read-out: Solubility pH 4.0 Concentration
[13] = glycylglycine buffer, pH 5.0, read-out: Solubility pH 5.0 Concentration
[14] = hCTR funct. EC50 divided by hAmylin-R funct. EC50
[15] = hCTR funct. EC50 over hAmylin-R funct. EC50
[16] = human functional selectivity: hCTR funct. EC50 / hAmylin-R funct. EC50
[17] = Table 7, rat binding selectivity, rCTR IC50 / rAmylin-R IC50
[18] = Table 7a (preferred compounds), rat binding selectivity, rCTR IC50 / rAmylin-R IC50
[19] = ratio of rCTR bind IC50 to rAmylin-R bind IC50

T3 sequence (O60896 24-148, one chain of several): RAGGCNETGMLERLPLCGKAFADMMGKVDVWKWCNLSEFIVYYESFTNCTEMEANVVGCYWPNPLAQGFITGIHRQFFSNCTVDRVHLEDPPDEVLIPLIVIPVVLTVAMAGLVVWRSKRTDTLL

| EC50 [1] [nM] | solubility at 18 h [2, 6] [µM] | solubility at 18 h [2, 7] [µM] | solubility at 18 h [2, 8] [µM] | solubility at 18 h [2, 9] [µM] | solubility at 18 h [2, 10] [µM] | solubility at 18 h [2, 11] [µM] | solubility at 18 h [2, 12] [µM] | solubility at 18 h [2, 13] [µM] | IC50 [3] [nM] | Ratio hCT/hAmylin funct. [4, 14] | Ratio hCT/hAmylin funct. [4, 15] | EC50 [4] [nM] | Ratio hCT/hAmylin funct. [4, 16] | IC50 ([5]; Table 7) [nM] | Ratio rCT/rAmylin binding [5, 17] | Ratio rCT/rAmylin binding [5, 18] | Ratio rCT/rAmylin binding [5, 19] | Solubility pH 6.5 Concentration ([2]; pH 6.5 (Table 9a)) | Solubility pH 7.0 Concentration ([2]; pH 7.0 (Table 9a)) | Structure (SMILES) |
| --- | --- | --- | --- | --- | --- | --- | --- | --- | --- | --- | --- | --- | --- | --- | --- | --- | --- | --- | --- | --- |
| 0.731 | ≥ 200 | ≥ 200 | ≥ 200 | ≥ 200 | 119 (≈ 541 µg/mL) | ≥ 200 | ≥ 200 | ≥ 200 | 2.18 | 10.8 | 10.8 | 0.068 | 10.8 | 0.081 | 77.2 | 77.2 | 77.2 |  |  | CC[C@H](C)[C@H](NC(=O)[C@H](C)NC(=O)CNC(=O)[C@H](Cc1ccccc1)NC(=O)[C@H](CC(N)=O)NC(=O)[C@@H]1CCCN1C(=O)[C@H](CO)NC(=O)[C@H](CO)NC(=O)[C@H](Cc1c[nH]cn1)NC(=O)[C@H](CCCNC(=N)N)NC(=O)[C@H](CC(C)C)NC(=O)[C@H](Cc1ccccc1)NC(=O)[C@H](CC(N)=O)NC(=O)[C@H](C)NC(=O)[C@H](CC(C)C)NC(=O)[C@H](CCCNC(=N)N)NC(=O)[C@H](CCC(N)=O)NC(=O)[C@@H](NC(=O)[C@H](C)NC(=O)[C@@H]1CSSC[C@H](NC(=O)[C@@H](N)CCCCNC(=O)COCCOCCNC(=O)CC[C@H](NC(=O)CCCCCCCCCCCCCCCCCCC(=O)O)C(=O)O)C(=O)N[C@@H](CC(N)=O)C(=O)N[C@@H]([C@@H](C)O)C(=O)N[C@@H](C)C(=O)N[C@@H]([C@@H](C)O)C(=O)N1)[C@@H](C)O)C(=O)N1CCC[C@H]1C(=O)N1CCC[C@H]1C(=O)N[C@@H](CO)C(=O)N[C@H](C(=O)N[C@@H](CC(N)=O)C(=O)N[C@H](C(=O)NCC(=O)N1CCC[C@H]1C(=O)N[C@@H](CC(N)=O)C(=O)N[C@H](C(=O)N[C@@H](Cc1ccc(O)cc1)C(N)=O)[C@@H](C)O)C(C)C)[C@@H](C)O [Example 55] (H-K([AEEA-γGlu-C20 diacid])CNTATCATQRLANFLRHSSPNFGAIPPSTNVGPNTY-NH2; disulfide 2-7; N-terminus assumed) |
| 1.95 | ≥ 200 | ≥ 200 | ≥ 200 | ≥ 200 | ≥ 200 | ≥ 200 | ≥ 200 | ≥ 200 | 5.14 |  |  | 0.389 | 5.0 | 0.659 | 28.5 | 28.5 |  |  |  | CC[C@H](C)[C@H](NC(=O)[C@H](C)NC(=O)CNC(=O)[C@H](Cc1ccccc1)NC(=O)[C@H](CC(N)=O)NC(=O)[C@H](CCCCNC(=O)CC[C@H](NC(=O)CC[C@H](NC(=O)CCCCCCCCCCCCCCCCCCC(=O)O)C(=O)O)C(=O)O)NC(=O)[C@H](CO)NC(=O)[C@H](CO)NC(=O)[C@H](Cc1c[nH]cn1)NC(=O)[C@H](CCCNC(=N)N)NC(=O)[C@H](CC(C)C)NC(=O)[C@H](Cc1ccccc1)NC(=O)[C@H](CC(=O)O)NC(=O)[C@H](C)NC(=O)[C@H](CC(C)C)NC(=O)[C@H](CCCNC(=N)N)NC(=O)[C@H](CCC(N)=O)NC(=O)[C@@H](NC(=O)[C@H](C)NC(=O)[C@@H]1CSSC[C@H](NC(=O)[C@@H](N)CCCCN)C(=O)N[C@@H](CC(N)=O)C(=O)N[C@@H]([C@@H](C)O)C(=O)N[C@@H](C)C(=O)N[C@@H]([C@@H](C)O)C(=O)N1)[C@@H](C)O)C(=O)N1CCC[C@H]1C(=O)N[C@@H](CO)C(=O)N[C@@H](CO)C(=O)N[C@H](C(=O)N[C@@H](CC(N)=O)C(=O)N[C@H](C(=O)NCC(=O)N[C@@H](CO)C(=O)N[C@@H](CC(=O)O)C(=O)N[C@H](C(=O)N[C@@H](Cc1ccc(O)cc1)C(N)=O)[C@@H](C)O)C(C)C)[C@@H](C)O [Example 59] (H-KCNTATCATQRLADFLRHSSK([γGlu-γGlu-C20 diacid])NFGAIPSSTNVGSDTY-NH2; disulfide 2-7; N-terminus assumed) |
| 0.542 | ≥ 200 | 131 (≈ 580 µg/mL) | ≥ 200 | ≥ 200 | 52 (≈ 230 µg/mL) | ≥ 200 | ≥ 200 | ≥ 200 | 18 | 20.1 | 20.1 | 0.027 | 20.1 | 0.581 | 35.8 | 35.8 | 35.8 | ≧200 μM | ≧200 μM | CC[C@H](C)[C@H](NC(=O)[C@H](C)NC(=O)CNC(=O)[C@H](Cc1ccccc1)NC(=O)[C@H](CC(N)=O)NC(=O)[C@@H]1CCCN1C(=O)[C@H](CO)NC(=O)[C@H](CO)NC(=O)[C@H](Cc1c[nH]cn1)NC(=O)[C@H](CCCNC(=N)N)NC(=O)[C@H](CC(C)C)NC(=O)[C@H](Cc1ccccc1)NC(=O)[C@H](Cc1c[nH]cn1)NC(=O)[C@H](C)NC(=O)[C@H](CC(C)C)NC(=O)[C@H](CCCNC(=N)N)NC(=O)[C@H](CCC(N)=O)NC(=O)[C@@H](NC(=O)[C@H](C)NC(=O)[C@@H]1CSSC[C@H](NC(=O)[C@@H](N)CCCCNC(=O)CC[C@H](NC(=O)CCCCCCCCCCCCCCCCCCC(=O)O)C(=O)O)C(=O)N[C@@H](CC(N)=O)C(=O)N[C@@H]([C@@H](C)O)C(=O)N[C@@H](C)C(=O)N[C@@H]([C@@H](C)O)C(=O)N1)[C@@H](C)O)C(=O)N1CCC[C@H]1C(=O)N[C@@H](CO)C(=O)N[C@@H](CO)C(=O)N[C@H](C(=O)N[C@@H](CC(N)=O)C(=O)N[C@H](C(=O)NCC(=O)N[C@@H](CO)C(=O)N[C@@H](Cc1c[nH]cn1)C(=O)N[C@H](C(=O)N[C@@H](Cc1ccc(O)cc1)C(N)=O)[C@@H](C)O)C(C)C)[C@@H](C)O [Example 66] (H-K([γGlu-C20 diacid])CNTATCATQRLAHFLRHSSPNFGAIPSSTNVGSHTY-NH2; disulfide 2-7; N-terminus assumed) |
